What was measured:
Format in all cases: physicochemical
[1] = Solvent solubility of perfluoroalkanamides; design: key: S: complete dissolve in the solvent at room temperature; P: precipitation in the solvent; conditions: 3% w/w; for Solubility in Acetone: room temperature
Source text: It is clear from the observation that perfluoroalkanamides of the present invention can easily form micelles in acetone at room temperature. With shorter perfluoroalkyl group (i.e., C6F13—), perfluoroalkanamide can dissolve into all tested hydrocarbon solvents at room temperature, but precipitate in fluorocarbon (i.e., CF-76).

[2] = Ternary phase diagram / phase behavior of PFC/water/fluorosurfactant (PFC microemulsion formation)
Source text: The formation of PFC-in-water emulsion requires high energy to disperse PFC as surfactant-stabilized microdroplets in aqueous phase; while, for thermodynamic stable PFC microemulsion, two immiscible liquid phases with the aid of a pertinent fluorosurfactant can turn into an optically isotropic solution simply by gentle mixing. Given in FIG. 2, different phase behaviors were created by titering various concentrations of C7F15CONH-MPEG350 surfactant dissolved in water solution with different amounts of PFOB liquid. Since the specific density of PFOB is 1.94 which is larger than the water density, the milky PFOB-in-water emulsion settled down on the bottom of the vial (FIG. 2A). […]
Aqueous solutions containing given quantities of fluorosurfactant were progressively added with PFC and placed in a thermostat water bath set at 25° C. After each addition, the aspect of the solution was recorded, along with number, nature, and approximate volumes of phases. […] Ternary phase diagrams were then plotted to distinguish the boundaries between different phases and used to quantitate the proportion of three components (water, fluorosurfactant, and PFC) forming PFC microemulsion.
The ternary phase diagram given in FIG. 3 was determined by the weight fraction of water, PFOB, and RF-MPEG350. The PFOB microemulsion domain was determined to be the area under the test points symbolized as ▪. […]

[3] = Solubility of C7F15-MPEG in PFC; conditions: decreases with increment of MW of MPEG

Row | Molecule | Solubility in CF-76 (3 M) ([1]; > 40° C.) [°C → S] | Solubility in CF-76 (3 M) ([1]; @ RT) | Solubility in Ethanol ([1]; @ RT) | Solubility in Hexane ([1]; @ RT) | Solubility in Acetone [1] | Solubility in Hexane ([1]; > 30° C.) [°C → S] | Solubility in Ethanol ([1]; > 40° C.) [°C → S] | Size of PFC microemulsion domain in ternary phase diagram ([2]; PFOB and ZT85, 25° C.) | Formation of transparent PFC microemulsion ([2]; PFOB or ZT85 / water / fluorosurfactant, 25° C., no co-surfactant) | Solubility in PFOB or ZT85 (rank order) [3]
1 | C7F15CONH-PEG350-OCH3 |  |  |  |  |  |  |  | largest PFC microemulsion region | PFC-in-water microemulsion | C7F15-MPEG350>C7F15-MPEG550>C7F15-MPEG750
2 | C7F15CONH-PEG550-OCH3 |  |  |  |  |  |  |  |  |  | C7F15-MPEG350>C7F15-MPEG550>C7F15-MPEG750
3 | C7F15CONH-PEG750-OCH3 |  |  |  |  |  |  |  |  |  | C7F15-MPEG350>C7F15-MPEG550>C7F15-MPEG750

Second part, led by results:

Row | Solubility in CF-76 (3 M) ([1]; > 40° C.) [°C → S] | Solubility in CF-76 (3 M) ([1]; @ RT) | Solubility in Ethanol ([1]; @ RT) | Solubility in Hexane ([1]; @ RT) | Solubility in Acetone [1] | Solubility in Hexane ([1]; > 30° C.) [°C → S] | Solubility in Ethanol ([1]; > 40° C.) [°C → S] | Size of PFC microemulsion domain in ternary phase diagram ([2]; PFOB and ZT85, 25° C.) | Formation of transparent PFC microemulsion ([2]; PFOB or ZT85 / water / fluorosurfactant, 25° C., no co-surfactant) | Molecule | Solubility in PFOB or ZT85 (rank order) [3]
4 | 40 | @ RT → P > | S | S | S |  |  |  |  | CCCCCCCCCCCCNC(=O)C(F)(F)C(F)(F)C(F)(F)C(F)(F)C(F)(F)C(F)(F)F [C6F13CONHC12H25] | 
5 | 40 | @ RT → P > | @ RT → P > | @ RT → P > | S | 30 | 40 |  |  | CCCCCCCCCCCCNC(=O)C(F)(F)C(F)(F)C(F)(F)C(F)(F)C(F)(F)C(F)(F)C(F)(F)F [C7F15CONHC12H25] | 
6 |  | S | S | S | S |  |  |  |  | CCCCCCCCNC(=O)C(F)(F)C(F)(F)C(F)(F)C(F)(F)C(F)(F)C(F)(F)C(F)(F)C(F)(F)F [C8F17CONHC8H17] | 
7 | 40 | @ RT → P > | @ RT → P > | @ RT → P > | S | 30 | 40 |  |  | CCCCCCCCCCCCNC(=O)C(F)(F)C(F)(F)C(F)(F)C(F)(F)C(F)(F)C(F)(F)C(F)(F)C(F)(F)F [C8F17CONHC12H25] | 
